# Tests used:
# Assay type in all cases: in vivo
# [1] = system: male Swiss albino mice (CD-1); assay: Rotarod test (motor coordination); settings: i.p., 0.5 h
# Experimental: (§1) All procedures were carried out in accordance with applicable Polish and international guidelines on the ethics of animal testing, after obtaining appropriate institutional approval. The substances were administered intraperitoneally (i.p.), in 1% aqueous solution of Tween, as single injections with a volume of 10 ml/kg, 30 minutes before the given test. Screening was performed on groups consisted of 4 mice. […] All tests were carried out based on the procedures described in the specialist literature.
# Mice were trained the day before the actual experiment. They were placed individually on a 2 cm diameter rod rotating at 10 revolutions per minute (rpm). During each training session, the animals remained on the rod for 3 minutes. The experiment was carried out 30 minutes after administration of the compounds. Motor coordination was tested at the speed of the rotating bar: 10 rpm during 60 seconds. Motor impairments were defined as the inability to remain on the rotating rod for 1 min.
# (§2) To perform a statistical evaluation of the results, one-way ANOVA variance analysis and Dunnett's post hoc test (multiple comparison test) were used. The value at the significance level p<0.05 was considered statistically significant.
# [2] = system: male Swiss albino mice (CD-1); assay: Maximal electroshock seizure test (MES); settings: 0.5 h, mice
# Summary of the method: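 Seizures were induced by auricular electroshock (25 mA, 500 V, 0.2 s) 30 min after a single i.p. dose in 1% aqueous Tween, scoring hind-limb tonic extension. Animals were male Swiss CD-1 mice, 18–26 g; ED50 was estimated from 3–4 dose groups of 6.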
# [3] = system: male Swiss albino mice (CD-1); assay: Psychomotor seizure test 6 Hz (44 mA); settings: 0.5 h, mice
# Experimental: as §1
# In the 6 Hz test, seizures were induced by an electric stimulus of 32 mA and/or 44 mA and a frequency of 6 pulses per second. […] Before starting the test, the eye surface was gently moistened with a solution of local anesthetic (1% lidocaine solution). The study was conducted 30 minutes after intraperitoneal administration of the compounds at various doses. An electrical pulse was delivered continuously for a period of 3 seconds, followed by observation of the animal for a period of 10 seconds. During this time, immobility or stun associated with rearing, forelimb clonus, twitching of the vibrissae and Straub's tail were observed. These symptoms persist throughout the observation period, indicating the occurrence of psychomotor seizures in mice.
# as §2
# [4] = system: male Swiss albino mice (CD-1); assay: Subcutaneous pentylenetetrazole seizure test (scPTZ); settings: 0.5 h, mice
# Summary of the method: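 Compounds given i.p. in 1% aqueous Tween 30 min before s.c. PTZ at 100 mg/kg. Mice observed 30 min for clonic seizures (whole-body clonus ≥3 s with loss of righting reflex); absence counted as protection. ED50 from 3-4 groups of 6 mice; screening in groups of 4.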
# [5] = system: male Swiss albino mice (CD-1); assay: Psychomotor seizure test 6 Hz (32 mA); settings: 0.5 h, mice; for ED50 6 Hz (32 mA): i.p.
# Summary of the method: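 Compounds given i.p. in 1% aqueous Tween 30 min before a 3 s ocular stimulus (32 mA and/or 44 mA, 6 pulses/s) after lidocaine; mice normal within 10 s counted protected. ED50 from 3-4 groups of 6 mice; screening on groups of 4.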
# [6] = system: male white Swiss mice (CD-1); assay: Formalin test (analgesic activity)
# Experimental: (§3) The tests were carried out using male white Swiss mice (CD-1) weighing 18-25 g. All procedures were carried out in accordance with Polish and international guidelines on ethics of animal testing, after obtaining appropriate institutional approval. The study group consisted of 8-10 animals. The tested and reference substances were administered intraperitoneally 30 minutes before given test as suspension in 1% aqueous solution of Tween. All tests/models were carried out based on the procedures described in the specialist literature: the formalin test (Beirith, A.; Santos, A. R.; Calixto, J. B.; Rodrigues, A. L.; Creczynski-Pasa, T. B. Eur. J. Pharmacol. 1998, 345, 233-245), the model of capsaicin-induced pain (Mogilski, S.; Kubacka, M.; Redzicka, A.; Kazek, G.; Dudek, M.; Malinka, W.; Filipek, B. Pharmacol. Biochem. Behav. 2015, 133, 99-110), the model of oxaliplatin-induced neuropathic pain—von Frey test (Sałat, K.; Cios, A.; Wyska, E.; Satat, R.; Mogilski, S.; Filipek, B.; Wigȩkowski, K.; Malawska, B. Pharmacol. Biochem. Behav. 2014, 122, 173-181).
# The pain was induced by the subplantar injection of 20 μL of 2.5% formalin solution into the mice right hind paw. The animals were placed in separate, transparent observation chambers for a period of 30 minutes. The measured value was the total licking and biting time of the paw to which the formalin solution was injected. The nociceptive reaction time was calculated for the first 5 minutes after formalin injection (first phase of the test—acute pain) and in the 15-20, 20-25 and 25-30 minutes time intervals after its administration (second phase of the test—inflammatory pain). The observed inhibition of nociceptive reaction—reduction of paw licking and biting time, was interpreted as the analgesic effect of the compound tested. Based on the results obtained, the ED50 dose was calculated (dose that reduces the nociceptive reaction time by 50%). […] Compound 6 was administered at doses of 10 mg/kg, 20 mg/kg and 30 mg/kg.
# [7] = system: male white Swiss mice (CD-1); assay: Oxaliplatin-induced neuropathic pain, von Frey test; settings: baseline 2.62±0.06 g, after OXPT 1.78±0.04 g
# Experimental: as §3
# Oxaliplatin (OXPT) was dissolved in a 5% glucose solution, followed by intraperitoneal administration to mice. A single dose of 10 mg/kg was used. Tactile and thermal (sensation of low temperature) allodynia associated with oxaliplatin-induced neuropathy are characterized by two phases. The early phase is acute and develops soon after administration of the OXPT, while the symptoms of the later (chronic) phase (associated with neurons damage), develops after a few days. Behavioral tests in mice with OXPT-induced neuropathy were carried out 7 days after its administration, i.e. in the late phase of neuropathy.
# The influence of compounds tested on tactile allodynia was determined in the von Frey test. The animals were placed individually in cages with a reticulated bottom, 60 minutes before the beginning of the experiment, in order to adapt to the new environment. An electronic Von Frey apparatus (Electronic Von Frey, Bioseb, France) was used to assess the pain threshold for mechanical stimuli. The von Frey's fiber was applied to the underside of the right mouse paw with increasing pressure. […] The measurement was performed 3 times for each mouse, with at least 30 seconds between the measurements, then the results obtained were averaged. The entire study was performed 3 times: before OXPT administration to determine the baseline pain threshold; 7 days after administration of OXPT, and before administration of test compounds, to assess developing neuropathy by setting a new pain threshold; 30 minutes after administration of the compounds to determine their influence developed neuropathy.
# Compound 6 was administered at doses of 10, 20 and 30 mg/kg.
# [8] = system: male white Swiss mice (CD-1); assay: Capsaicin-induced pain model; settings: 200 mg/kg i.p.
# Experimental: as §3
# This test assesses the time of licking and/or biting the hind paw into which mice were injected subplantarly with capsaicin in an amount of 1.6 μg, dissolved in 20 μl of a mixture containing 0.9% saline and ethanol (5% of the final volume). Observation was carried out […] after capsaicin administration. Test compounds were administered intraperitoneally 30 minutes before administration of capsaicin. Inhibition of nociceptive reaction—shortening the time of licking and biting the paw was the measure of antinociceptive activity of the compound tested.
# Valproic acid (VPA) was the reference compound in this test. […] Compound 6 was administered at 20 mg/kg, 30 mg/kg and 40 mg/kg. Test compounds were administered as a suspension in 1.0% Tween 80 solution. The control group consisted of mice treated with vehicle alone (1% Tween 80 solution). The nociceptive reaction time in this group was 43.29±3.21 seconds.
SMILES,TD50 [1] [mg/kg],ED50 MES ([2]; i.p.) [mg/kg],"MES: number of mice protected/number of mice tested ([2]; screening, 100 mg/kg i.p.)",ED50 6 Hz (44 mA) ([3]; i.p.) [mg/kg],"6 Hz (44 mA): number of mice protected/number of mice tested ([3]; screening, 100 mg/kg i.p.)",ED50 scPTZ ([4]; i.p.) [mg/kg],"scPTZ: number of mice protected/number of mice tested ([4]; screening, 100 mg/kg i.p.)",ED50 6 Hz (32 mA) [5] [mg/kg],"6 Hz (32 mA): number of mice protected/number of mice tested ([5]; screening, 100 mg/kg i.p.)","ED50 ([6]; Mus musculus, ip, phase II (inflammatory pain, 15-30 min), i.p., mice, read-out: ED50 in the second phase of the formalin test) [mg/kg]","analgesic activity in the first phase of the formalin test ([6]; phase I, 100, 150 and 200 mg/kg i.p.)","pain threshold, von Frey test ([7]; 50 mg/kg i.p.) [g]","pain threshold, von Frey test ([7]; 100 mg/kg i.p.) [g]","pain threshold, von Frey test ([7]; 150 mg/kg i.p.) [g]","ED50 ([5]; Mus musculus, ip) [mg/kg]","analgesic activity, capsaicin test [8] [%]","nociceptive reaction time, capsaicin test ([8]; control 43.29±3.21 seconds) [s]"
O=C(C(c1ccccc1)N1C(=O)CCC1=O)N1CCN(c2cccc(SC(F)(F)F)c2)CC1 (stereo not drawn) [Compound 12],150.0,36.2,4/4,57.9,¾,>100,4/4,15.8,4/4,–,–,–,–,–,–,–,–
"CCCC(CCC)C(=O)O [VPA, valproic acid, reference compound]",–,–,–,–,–,–,–,130.6,–,133,no analgesic activity,2.75 ± 0.06,3.18 ± 0.14,3.97 ± 0.30,131,42.25,25.00 ± 4.57
